The source of these data is ChEMBL document CHEMBL1138929, “Development of peptidic dopamine transporter inhibitors via aromatic modification-mediated conformational restriction” (J Med Chem, 2006).

Starred links: 1 amine or outer side, 2 acyl side, 3 side chain; linkers in the order of their positions; H or OH if unused. Non-standard residues stand in square brackets, D forms with d. Residues, ends and D or L forms follow the SMILES beside them. *: point of attachment. X1 = O=C([C@H](Cc1ccc(O)c(Cc2ccccc2)c1)N[*:1])[*:2]; Bpa = N[C@@H](Cc1ccc(C(=O)c2ccccc2)cc1)C(=O)O; Bip = N[C@@H](Cc1ccc(-c2ccccc2)cc1)C(=O)O; 1Nal = N[C@@H](Cc1cccc2ccccc12)C(=O)O; 2Nal = N[C@@H](Cc1ccc2ccccc2c1)C(=O)O; Bn = c1ccc(C*)cc1

Data set [1] has as its target T1, Sodium-dependent dopamine transporter (Rattus norvegicus, UniProt P23977). Nature of the data set: Inhibition of rat DAT-mediated [3H]dopamine uptake in CHO cells. In kind it is cell-based.
Data set [2] relates to Mus musculus. Nature of the data set: Effect on 10 mg/kg cocaine-induced place preference in BALB/c mouse at 10 mg/kg, sc measured as pre and procondition time difference. In kind it is functional.
For data set [3], the system named is Mus musculus. Nature of the data set: Effect on place preference in BALB/c mouse at 20 mg/kg, sc measured as pre and procondition time difference. In kind it is functional. To be noted: route subcutaneous.
The subject of data set [4] is Mus musculus. Put plainly: Effect on cocaine-induced place preference in BALB/c mouse at 10 mg/kg, sc measured as pre and procondition time difference. In kind it is functional. To be noted: route subcutaneous.
In data set [5] the target is Sodium-dependent serotonin transporter (Rattus norvegicus, UniProt P31652). Put plainly: Inhibition of rat SERT-mediated serotonin uptake in CHO cells. It is filed as cell-based.
Chain of Sodium-dependent serotonin transporter (P31652 whole entry): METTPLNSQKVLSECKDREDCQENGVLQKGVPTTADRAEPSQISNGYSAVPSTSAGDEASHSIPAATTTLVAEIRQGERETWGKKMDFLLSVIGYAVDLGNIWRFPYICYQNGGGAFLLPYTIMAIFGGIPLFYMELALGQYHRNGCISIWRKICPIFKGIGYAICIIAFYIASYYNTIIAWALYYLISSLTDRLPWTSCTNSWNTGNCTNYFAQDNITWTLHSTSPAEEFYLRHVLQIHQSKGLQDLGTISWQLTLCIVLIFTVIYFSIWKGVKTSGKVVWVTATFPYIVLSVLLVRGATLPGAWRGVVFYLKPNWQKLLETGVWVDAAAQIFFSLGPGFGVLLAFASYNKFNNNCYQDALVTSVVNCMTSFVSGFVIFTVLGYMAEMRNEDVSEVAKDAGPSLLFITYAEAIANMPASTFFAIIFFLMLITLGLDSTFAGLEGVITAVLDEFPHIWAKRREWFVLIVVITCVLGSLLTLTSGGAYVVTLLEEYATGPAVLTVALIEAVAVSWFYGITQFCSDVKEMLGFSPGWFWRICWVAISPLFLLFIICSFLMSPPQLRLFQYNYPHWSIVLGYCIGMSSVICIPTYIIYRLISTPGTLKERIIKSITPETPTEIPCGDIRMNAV
Data set [6] deals with Sodium- and chloride-dependent GABA transporter 1 (Mus musculus, UniProt P31648). Put plainly: Inhibition of mouse GAT1-mediated gamma-aminobutyric acid uptake in CHO cells. It is filed as cell-based.
Data set [7] deals with Sodium-dependent noradrenaline transporter (Rattus norvegicus) (UniProt P31652). Put plainly: Inhibition of rat NET-mediated norepinephrine uptake in CHO cells. The conditions noted are these: cho.
Chain of Sodium-dependent noradrenaline transporter (Rattus norvegicus) (P31652 whole entry, looked up): as the sequence (P31652 whole entry) above
Data set [8] addresses T1, Sodium-dependent dopamine transporter. Nature of the data set: Inhibition of [3H]WIN-35428 binding to rat DAT expressed in D8 cells. It is filed as cell-based.
In data set [9] the target is Sodium-dependent noradrenaline transporter, Rattus norvegicus. Put plainly: Inhibition of rat NET-mediated norepinephrine uptake in CHO cells.
The subject of data set [10] is Mus musculus. Nature of the data set: Effect on place preference in BALB/c mouse at 10 mg/kg measured as pre and procondition time difference. In kind it is functional.
Substrate in data set [11]: CC(c1ccc(-c2ccc(C[C@H](N)C(=O)O)cc2)cc1)[C@H](N)C(=O)N[C@@H](Cc1ccc(O)cc1)C(=O)N[C@H](C(=O)N1CCC[C@H]1C(=O)N[C@H](C(=O)NCC(=O)O)[C@@H](C)OCc1ccccc1)[C@@H](C)O
To be noted: Rattus norvegicus; D8; 600 nM.
Description: Inhibition of rat DAT-mediated [3H]dopamine accumulation in D8 cells at 600 nM

Substrate in data set [12]: CC(c1ccc(-c2ccc(C[C@H](N)C(=O)O)cc2)cc1)[C@H](N)C(=O)N[C@@H](Cc1ccc(O)cc1)C(=O)N[C@H](C(=O)N1CCC[C@H]1C(=O)N[C@H](C(=O)NCC(=O)O)[C@@H](C)OCc1ccccc1)[C@@H](C)O
Description: Inhibition of rat DAT-mediated [3H]dopamine accumulation in D8 cells at 250 nM
To be noted: Rattus norvegicus; D8; 250 nM.

In general, IC50 refers to the concentration at which inhibition is half-maximal. Higher therefore signals a need for much substance. On to `C[C@@H](O)[C@H](NC(=O)[C@H](CCCCN)NC(=O)[C@@H]1CCCN1C(=O)[C@@H](NC(=O)[C@H](Cc1ccc(O)cc1)NC(=O)[C@H](Cc1ccccc1)NC(=O)[C@@H](N)Cc1ccccc1)[C@@H](C)O)C(=O)O` (H-FFYTPKT-OH), for which the concentration for half-maximal inhibition (IC50) in [1] is > 1000 µM.

As to `C[C@@H](O)[C@H](NC(=O)[C@H](Cc1ccc(O)cc1)NC(=O)[C@@H](N)Cc1cccc2ccccc12)C(=O)N1CCC[C@H]1C(=O)N[C@@H](CCCCN)C(=O)N[C@H](C(=O)NCC(=O)O)[C@@H](C)OCc1ccccc1` (H-[1Nal]YTPKT(Bn)G-OH), in data set [1], the IC50 stood at 199 µM.

With `C[C@@H](O)[C@H](NC(=O)[C@H](Cc1ccc(O)cc1)NC(=O)[C@@H](N)Cc1ccc2ccccc2c1)C(=O)N1CCC[C@H]1C(=O)N[C@@H](CCCCN)C(=O)N[C@H](C(=O)NCC(=O)O)[C@@H](C)OCc1ccccc1` (H-[2Nal]YTPKT(Bn)G-OH), the IC50 in data set [1] came to 184 µM. This IC50 and that of the molecule before are within 1.5-fold of each other.

`C[C@H](NC(=O)[C@@H](N)Cc1ccc(-c2ccccc2)cc1)C(=O)N[C@H](C(=O)N1CCC[C@H]1C(=O)N[C@@H](CCCCN)C(=O)N[C@H](C(=O)NCC(=O)O)[C@@H](C)OCc1ccccc1)[C@@H](C)O` (H-[Bip]ATPKT(Bn)G-OH) displayed a concentration for half-maximal inhibition (IC50) in data set [1] (cho) of 173 µM.

As to `C[C@H](NC(=O)[C@H](Cc1ccc(O)cc1)NC(=O)[C@@H](N)Cc1ccc(-c2ccccc2)cc1)C(=O)N1CCC[C@H]1C(=O)N[C@@H](CCCCN)C(=O)N[C@H](C(=O)NCC(=O)O)[C@@H](C)OCc1ccccc1` (H-[Bip]YAPKT(Bn)G-OH), in data set [1] (cho), half-maximal inhibition (IC50) required 11 µM.

In data set [1] (cho), `C[C@@H](O)[C@H](NC(=O)[C@H](CCCCN)NC(=O)[C@@H]1CCCN1C(=O)[C@@H](NC(=O)[C@H](Cc1ccc(O)cc1)NC(=O)[C@@H](N)Cc1ccc(-c2ccccc2)cc1)[C@@H](C)OCc1ccccc1)C(=O)NCC(=O)O` (H-[Bip]YT(Bn)PKTG-OH) came in with an IC50 of 20 µM.

For `C[C@H](NC(=O)[C@@H](NC(=O)[C@H](Cc1ccc(O)cc1)NC(=O)[C@@H](N)Cc1ccc(-c2ccccc2)cc1)[C@@H](C)O)C(=O)N[C@@H](CCCCN)C(=O)N[C@H](C(=O)NCC(=O)O)[C@@H](C)OCc1ccccc1` (H-[Bip]YTAKT(Bn)G-OH), in [1] (cho), the IC50 was > 1000 µM.

Consider `C[C@H](NC(=O)[C@@H](NC(=O)[C@H](Cc1ccc(O)cc1)NC(=O)[C@@H](N)Cc1ccc(-c2ccccc2)cc1)[C@@H](C)O)C(=O)N[C@H](C(=O)NCC(=O)O)[C@@H](C)OCc1ccccc1` (H-[Bip]YTAT(Bn)G-OH) [listing 1 of 2 here], for which the IC50 in data set [1] (cho) is > 1000 µM.

Consider `C[C@H](NC(=O)[C@@H](NC(=O)[C@H](Cc1ccc(O)cc1)NC(=O)[C@@H](N)Cc1ccc(-c2ccccc2)cc1)[C@@H](C)O)C(=O)N[C@H](C(=O)NCC(=O)O)[C@@H](C)OCc1ccccc1` (H-[Bip]YTAT(Bn)G-OH) [listing 2 of 2 here], for which the Activity with Mus musculus [2] was 200 s; in the data set on Mus musculus [3], -14 s; with Mus musculus [4] it was 209 s.

For `C[C@H](NC(=O)[C@@H]1CCCN1C(=O)[C@@H](NC(=O)[C@H](Cc1ccc(O)cc1)NC(=O)[C@@H](N)Cc1ccc(-c2ccccc2)cc1)[C@@H](C)O)C(=O)N[C@H](C(=O)NCC(=O)O)[C@@H](C)OCc1ccccc1` (H-[Bip]YTPAT(Bn)G-OH), half-maximal inhibition in data set [1] (cho) (IC50) was put at 1.7 µM. That is a single-digit micromolar value.

`C[C@@H](O)[C@H](NC(=O)[C@H](Cc1ccc(O)cc1)NC(=O)[C@@H](N)Cc1ccc(-c2ccccc2)cc1)C(=O)N1CCC[C@H]1C(=O)N[C@@H](CCCCN)C(=O)N[C@H](C(=O)NCC(=O)O)[C@@H](C)OCc1ccccc1` (H-[Bip]YTPKT(Bn)G-OH) displayed an IC50 in data set [1] (cho) of 1.8 µM.

On to `C[C@@H](O)[C@H](NC(=O)[C@H](CCCCN)NC(=O)[C@@H]1CCCN1C(=O)[C@@H](NC(=O)[C@H](Cc1ccc(O)cc1)NC(=O)[C@@H](N)Cc1ccc(-c2ccccc2)cc1)[C@@H](C)O)C(=O)O` (H-[Bip]YTPKT-OH), for which the half-maximal inhibitory concentration (IC50) was > 1000 µM in [5] (cho), > 1000 µM in data set [6] (cho), 19 µM in data set [1] (cho) and > 1000 µM in [7].

Consider `C[C@@H](O)[C@H](NC(=O)[C@H](Cc1ccc(O)cc1)NC(=O)[C@@H](N)Cc1ccc(-c2ccccc2)cc1)C(=O)N1CCC[C@H]1C(=O)N[C@H](C(=O)NCC(=O)O)[C@@H](C)OCc1ccccc1` (H-[Bip]YTPT(Bn)G-OH) [listing 1 of 2 here], for which the IC50 in data set [8] is 0.494 µM; in [5], 110 µM; in data set [6], > 1000 µM; in data set [1], 0.3 µM; in data set [9], 90 µM.

Turning to `C[C@@H](O)[C@H](NC(=O)[C@H](Cc1ccc(O)cc1)NC(=O)[C@@H](N)Cc1ccc(-c2ccccc2)cc1)C(=O)N1CCC[C@H]1C(=O)N[C@H](C(=O)NCC(=O)O)[C@@H](C)OCc1ccccc1` (H-[Bip]YTPT(Bn)G-OH) [listing 2 of 2 here], the Activity in the data set on Mus musculus [2] is 78 s; in the data set with Mus musculus [3], -16 s; with Mus musculus [4] it was 61 s.

Consider `C[C@@H](O)[C@H](NC(=O)[C@H](CCCCN)NC(=O)[C@@H]1CCCN1C(=O)[C@@H](NC(=O)[C@H](Cc1ccc(O)c(Cc2ccccc2)c1)NC(=O)[C@@H](N)Cc1ccc(-c2ccccc2)cc1)[C@@H](C)O)C(=O)O` (H-[Bip][X1]TPKT-OH), for which, in [1] (cho), the IC50 came to 10 µM. In other words, the double-digit micromolar range.

In data set [1], `C[C@@H](O)[C@H](NC(=O)[C@H](Cc1ccc(O)cc1)NC(=O)[C@@H](N)Cc1ccc(C(=O)c2ccccc2)cc1)C(=O)N1CCC[C@H]1C(=O)N[C@@H](CCCCN)C(=O)N[C@H](C(=O)NCC(=O)O)[C@@H](C)OCc1ccccc1` (H-[Bpa]YTPKT(Bn)G-OH) returned an IC50 of 239 µM.

`COC(=O)[C@H]1[C@@H](OC(=O)c2ccccc2)C[C@@H]2CC[C@H]1N2C` [COCAINE] showed an Activity in the data set on Mus musculus [10] of 194 s.

B1: Sodium-dependent dopamine transporter (Rattus norvegicus), P23977 (protein)
chain: MSKSKCSVGPMSSVVAPAKESNAVGPREVELILVKEQNGVQLTNSTLINPPQTPVEAQERETWSKKIDFLLSVIGFAVDLANVWRFPYLCYKNGGGAFLVPYLLFMVIAGMPLFYMELALGQFNREGAAGVWKICPVLKGVGFTVILISFYVGFFYNVIIAWALHYFFSSFTMDLPWIHCNNTWNSPNCSDAHASNSSDGLGLNDTFGTTPAAEYFERGVLHLHQSRGIDDLGPPRWQLTACLVLVIVLLYFSLWKGVKTSGKVVWITATMPYVVLTALLLRGVTLPGAMDGIRAYLSVDFYRLCEASVWIDAATQVCFSLGVGFGVLIAFSSYNKFTNNCYRDAIITTSINSLTSFSSGFVVFSFLGYMAQKHNVPIRDVATDGPGLIFIIYPEAIATLPLSSAWAAVFFLMLLTLGIDSAMGGMESVITGLVDEFQLLHRHRELFTLGIVLATFLLSLFCVTNGGIYVFTLLDHFAAGTSILFGVLIEAIGVAWFYGVQQFSDDIKQMTGQRPNLYWRLCWKLVSPCFLLYVVVVSIVTFRPPHYGAYIFPDWANALGWIIATSSMAMVPIYATYKFCSLPGSFREKLAYAITPEKDHQLVDRGEVRQFTLRHWLLL
The term Km denotes the substrate concentration at which the rate is half of its maximum. With B1, the Km in data set [11] was 3.6 µM; in [12] it was 2.42 µM.
